Test results as given in the CheMixHub viscosity set.
± gives the uncertainty stated by the source.

Experiment: xn = mol fraction of the nth substance listed

`COCCOCCOCCO` + ClC=C(Cl)Cl gave a viscosity (298.15 K, 101.33 kPa, x1 = 0.0056) of 0.538 ± 0.006 mPa·s, a viscosity (298.15 K, 101.33 kPa, x1 = 0.0133) of 0.554 ± 0.006 mPa·s and a viscosity (298.15 K, 101.33 kPa, x1 = 0.0235) of 0.574 ± 0.006 mPa·s. For the same molecule, the viscosity (298.15 K, 101.33 kPa, x1 = 0.0377) was 0.603 ± 0.006 mPa·s, the viscosity (298.15 K, 101.33 kPa, x1 = 0.0554) was 0.645 ± 0.007 mPa·s and the viscosity (298.15 K, 101.33 kPa, x1 = 0.0751) was 0.694 ± 0.007 mPa·s. The viscosity (298.15 K, 101.33 kPa, x1 = 0.0865) was 0.725 ± 0.007 mPa·s, the viscosity (298.15 K, 101.33 kPa, x1 = 0.1057) was 0.778 ± 0.008 mPa·s and the viscosity (298.15 K, 101.33 kPa, x1 = 0.1359) was 0.869 ± 0.009 mPa·s. The viscosity (298.15 K, 101.33 kPa, x1 = 0.171) was 0.983 ± 0.01 mPa·s, the viscosity (298.15 K, 101.33 kPa, x1 = 0.2125) was 1.134 ± 0.011 mPa·s and the viscosity (298.15 K, 101.33 kPa, x1 = 0.2627) was 1.342 ± 0.013 mPa·s. It also gave a viscosity (298.15 K, 101.33 kPa, x1 = 0.286) of 1.451 ± 0.014 mPa·s, a viscosity (298.15 K, 101.33 kPa, x1 = 0.3201) of 1.615 ± 0.016 mPa·s and a viscosity (298.15 K, 101.33 kPa, x1 = 0.3511) of 1.784 ± 0.018 mPa·s. It also gave a viscosity (298.15 K, 101.33 kPa, x1 = 0.3864) of 1.974 ± 0.02 mPa·s, a viscosity (298.15 K, 101.33 kPa, x1 = 0.4202) of 2.172 ± 0.022 mPa·s and a viscosity (298.15 K, 101.33 kPa, x1 = 0.4548) of 2.382 ± 0.024 mPa·s. The viscosity (298.15 K, 101.33 kPa, x1 = 0.4947) was 2.633 ± 0.027 mPa·s, the viscosity (298.15 K, 101.33 kPa, x1 = 0.5322) was 2.875 ± 0.029 mPa·s and the viscosity (298.15 K, 101.33 kPa, x1 = 0.5817) was 3.21 ± 0.033 mPa·s. For the same molecule, the viscosity (298.15 K, 101.33 kPa, x1 = 0.6349) was 3.596 ± 0.037 mPa·s, the viscosity (298.15 K, 101.33 kPa, x1 = 0.6824) was 3.953 ± 0.041 mPa·s and the viscosity (298.15 K, 101.33 kPa, x1 = 0.7308) was 4.32 ± 0.046 mPa·s. The viscosity (298.15 K, 101.33 kPa, x1 = 0.7791) was 4.716 ± 0.05 mPa·s, the viscosity (298.15 K, 101.33 kPa, x1 = 0.8178) was 5.027 ± 0.054 mPa·s and the viscosity (298.15 K, 101.33 kPa, x1 = 0.8689) was 5.459 ± 0.059 mPa·s. The viscosity (298.15 K, 101.33 kPa, x1 = 0.9106) was 5.813 ± 0.064 mPa·s, the viscosity (298.15 K, 101.33 kPa, x1 = 0.9455) was 6.128 ± 0.067 mPa·s and the viscosity (298.15 K, 101.33 kPa, x1 = 0.9667) was 6.324 ± 0.07 mPa·s. For the same molecule, the viscosity (298.15 K, 101.33 kPa, x2 = 0.0177) was 6.438 ± 0.071 mPa·s.
In the case of `CC(C)C=O` + CCCC=O, the viscosity (293.5 K, 100 kPa, x1 = 0.2) is reported as 2.307 ± 0.087 mPa·s, the viscosity (293.51 K, 100 kPa, x1 = 0.12) is reported as 23.21 ± 0.7 mPa·s and the viscosity (317.08 K, 100 kPa, x1 = 0.12) is reported as 17.25 ± 0.52 mPa·s. The viscosity (318.11 K, 100 kPa, x1 = 0.2) was 1.698 ± 0.073 mPa·s.
Work on `COCCOCCOCCOC` + CCCCCCCCCO yielded a viscosity (293.15 K, 101 kPa, x1 = 0.06286) of 8.733 ± 0.12 mPa·s, a viscosity (293.15 K, 101 kPa, x1 = 0.0721) of 8.424 ± 0.11 mPa·s and a viscosity (293.15 K, 101 kPa, x1 = 0.157) of 6.409 ± 0.084 mPa·s. It also gave a viscosity (293.15 K, 101 kPa, x1 = 0.1967) of 5.797 ± 0.075 mPa·s, a viscosity (293.15 K, 101 kPa, x1 = 0.3999) of 3.779 ± 0.047 mPa·s and a viscosity (293.15 K, 101 kPa, x1 = 0.4952) of 3.246 ± 0.039 mPa·s. The viscosity (293.15 K, 101 kPa, x1 = 0.5949) was 2.852 ± 0.034 mPa·s, the viscosity (293.15 K, 101 kPa, x1 = 0.6909) was 2.575 ± 0.03 mPa·s and the viscosity (293.15 K, 101 kPa, x1 = 0.7539) was 2.434 ± 0.028 mPa·s. For the same molecule, the viscosity (293.15 K, 101 kPa, x1 = 0.8907) was 2.226 ± 0.025 mPa·s, the viscosity (293.15 K, 101 kPa, x1 = 0.9525) was 2.165 ± 0.024 mPa·s and the viscosity (303.15 K, 101 kPa, x1 = 0.06693) was 6.211 ± 0.084 mPa·s. It also gave a viscosity (303.15 K, 101 kPa, x1 = 0.08755) of 5.811 ± 0.078 mPa·s, a viscosity (303.15 K, 101 kPa, x1 = 0.1949) of 4.339 ± 0.057 mPa·s and a viscosity (303.15 K, 101 kPa, x1 = 0.2889) of 3.545 ± 0.045 mPa·s. It also gave a viscosity (303.15 K, 101 kPa, x1 = 0.3982) of 2.936 ± 0.037 mPa·s, a viscosity (303.15 K, 101 kPa, x1 = 0.4875) of 2.576 ± 0.031 mPa·s and a viscosity (303.15 K, 101 kPa, x1 = 0.5926) of 2.286 ± 0.027 mPa·s. For the same molecule, the viscosity (303.15 K, 101 kPa, x1 = 0.698) was 2.082 ± 0.024 mPa·s, the viscosity (303.15 K, 101 kPa, x1 = 0.7829) was 1.952 ± 0.022 mPa·s and the viscosity (303.15 K, 101 kPa, x1 = 0.9059) was 1.83 ± 0.02 mPa·s. For the same molecule, the viscosity (303.15 K, 101 kPa, x1 = 0.9404) was 1.795 ± 0.02 mPa·s, the viscosity (313.15 K, 101 kPa, x1 = 0.05997) was 4.72 ± 0.064 mPa·s and the viscosity (313.15 K, 101 kPa, x1 = 0.1) was 4.218 ± 0.057 mPa·s. The viscosity (313.15 K, 101 kPa, x1 = 0.1977) was 3.34 ± 0.044 mPa·s, the viscosity (313.15 K, 101 kPa, x1 = 0.2965) was 2.774 ± 0.035 mPa·s and the viscosity (313.15 K, 101 kPa, x1 = 0.3974) was 2.365 ± 0.029 mPa·s. The viscosity (313.15 K, 101 kPa, x1 = 0.4862) was 2.111 ± 0.026 mPa·s, the viscosity (313.15 K, 101 kPa, x1 = 0.5834) was 1.9 ± 0.023 mPa·s and the viscosity (313.15 K, 101 kPa, x1 = 0.6643) was 1.767 ± 0.021 mPa·s. The viscosity (313.15 K, 101 kPa, x1 = 0.802) was 1.635 ± 0.019 mPa·s, the viscosity (313.15 K, 101 kPa, x1 = 0.915) was 1.521 ± 0.017 mPa·s and the viscosity (313.15 K, 101 kPa, x1 = 0.9497) was 1.503 ± 0.017 mPa·s.
Molecule `Nc1ccccc1` + CN1CCCC1=O has a viscosity (303.15 K, 101 kPa, x2 = 0.0954) of 2.963 ± 0.029 mPa·s, a viscosity (303.15 K, 101 kPa, x2 = 0.1918) of 2.89 ± 0.029 mPa·s and a viscosity (303.15 K, 101 kPa, x2 = 0.2892) of 2.81 ± 0.028 mPa·s. The viscosity (303.15 K, 101 kPa, x2 = 0.3876) was 2.705 ± 0.028 mPa·s, the viscosity (303.15 K, 101 kPa, x2 = 0.487) was 2.55 ± 0.027 mPa·s and the viscosity (303.15 K, 101 kPa, x2 = 0.5875) was 2.34 ± 0.026 mPa·s. For the same molecule, the viscosity (303.15 K, 101 kPa, x2 = 0.689) was 2.15 ± 0.025 mPa·s, the viscosity (303.15 K, 101 kPa, x2 = 0.7915) was 1.964 ± 0.025 mPa·s and the viscosity (303.15 K, 101 kPa, x2 = 0.8952) was 1.76 ± 0.024 mPa·s. The viscosity (308.15 K, 101 kPa, x2 = 0.0954) was 2.57 ± 0.027 mPa·s, the viscosity (308.15 K, 101 kPa, x2 = 0.1918) was 2.51 ± 0.027 mPa·s and the viscosity (308.15 K, 101 kPa, x2 = 0.2892) was 2.445 ± 0.027 mPa·s. For the same molecule, the viscosity (308.15 K, 101 kPa, x2 = 0.3876) was 2.34 ± 0.026 mPa·s, the viscosity (308.15 K, 101 kPa, x2 = 0.487) was 2.187 ± 0.025 mPa·s and the viscosity (308.15 K, 101 kPa, x2 = 0.5875) was 2.035 ± 0.025 mPa·s. It also gave a viscosity (308.15 K, 101 kPa, x2 = 0.689) of 1.875 ± 0.024 mPa·s, a viscosity (308.15 K, 101 kPa, x2 = 0.7915) of 1.736 ± 0.024 mPa·s and a viscosity (308.15 K, 101 kPa, x2 = 0.8952) of 1.571 ± 0.023 mPa·s. For the same molecule, the viscosity (313.15 K, 101 kPa, x2 = 0.0954) was 2.25 ± 0.026 mPa·s, the viscosity (313.15 K, 101 kPa, x2 = 0.1918) was 2.2 ± 0.026 mPa·s and the viscosity (313.15 K, 101 kPa, x2 = 0.2892) was 2.13 ± 0.025 mPa·s. For the same molecule, the viscosity (313.15 K, 101 kPa, x2 = 0.3876) was 2.05 ± 0.025 mPa·s, the viscosity (313.15 K, 101 kPa, x2 = 0.487) was 1.95 ± 0.025 mPa·s and the viscosity (313.15 K, 101 kPa, x2 = 0.5875) was 1.83 ± 0.024 mPa·s. It also gave a viscosity (313.15 K, 101 kPa, x2 = 0.689) of 1.7 ± 0.024 mPa·s, a viscosity (313.15 K, 101 kPa, x2 = 0.7915) of 1.58 ± 0.023 mPa·s and a viscosity (313.15 K, 101 kPa, x2 = 0.8952) of 1.445 ± 0.023 mPa·s. It also gave a viscosity (318.15 K, 101 kPa, x2 = 0.0954) of 1.99 ± 0.025 mPa·s, a viscosity (318.15 K, 101 kPa, x2 = 0.1918) of 1.94 ± 0.025 mPa·s and a viscosity (318.15 K, 101 kPa, x2 = 0.2892) of 1.89 ± 0.024 mPa·s. For the same molecule, the viscosity (318.15 K, 101 kPa, x2 = 0.3876) was 1.825 ± 0.024 mPa·s, the viscosity (318.15 K, 101 kPa, x2 = 0.487) was 1.735 ± 0.024 mPa·s and the viscosity (318.15 K, 101 kPa, x2 = 0.5875) was 1.623 ± 0.023 mPa·s. For the same molecule, the viscosity (318.15 K, 101 kPa, x2 = 0.689) was 1.52 ± 0.023 mPa·s, the viscosity (318.15 K, 101 kPa, x2 = 0.7915) was 1.417 ± 0.023 mPa·s and the viscosity (318.15 K, 101 kPa, x2 = 0.8952) was 1.309 ± 0.022 mPa·s.
